What was measured:
Assay type in all cases: in vivo
[1] = system: Thrips tabaci (Onion Thrips); test: Thrips tabaci (Onion Thrips): Feeding/Contact activity; conditions: foliar, 144 h, application rate of 200 ppm, thrips population of mixed ages on sunflower leaf discs, assessed 6 days after infestation, read-out: control (mortality)
Description: Thrips tabaci (Onion Thrips): Feeding/Contact activity
(§1) Sunflower leaf discs were placed on agar in 24-well microtiter plates and sprayed with aqueous test solutions prepared from 10,000 ppm DMSO stock solutions. After drying the leaf discs were infested with a thrips population of mixed ages. The samples were assessed for mortality 6 days after infestation.

[2] = system: Tetranychus urticae (Two-spotted spider mite); test: Tetranychus urticae (Two-spotted spider mite): Feeding/contact activity; conditions: foliar, 192 h, application rate of 200 ppm, mite population of mixed ages (mobile stages) on bean leaf discs, assessed 8 days after infestation, read-out: control (mortality)
Description: Tetranychus urticae (Two-spotted spider mite): Feeding/contact activity
as §1, with “Bean” for “Sunflower”, “discs” for “discs were placed”, “were” for “and”, “mite” for “thrips”, “on mixed population (mobile stages) 8” for “6”

[3] = system: Euschistus heros (Neotropical Brown Stink Bug); test: Euschistus heros (Neotropical Brown Stink Bug): Feeding/contact activity; conditions: 120 h, application rate of 200 ppm, N2 nymphs on soybean leaves, assessed 5 days after infestation, read-out: control (mortality)
Description: Euschistus heros (Neotropical Brown Stink Bug): Feeding/contact activity Soybean leaves on agar in 24-well microtiter plates were sprayed with aqueous test solutions prepared from 10,000 ppm DMSO stock solutions. After drying the leaves were infested with N2 nymphs. The samples were assessed for mortality 5 days after infestation.

[4] = system: Myzus persicae (Green peach aphid); test: Myzus persicae (Green peach aphid): Feeding/Contact activity; conditions: foliar, 144 h, application rate of 200 ppm, aphid population of mixed ages on sunflower leaf discs, assessed 6 days after infestation, read-out: control (mortality)
Description: Myzus persicae (Green peach aphid): Feeding/Contact activity Sunflower leaf discs were placed onto agar in a 24-well microtiter plate and sprayed with aqueous test solutions prepared from 10,000 ppm DMSO stock solutions. After drying, the leaf discs were infested with an aphid population of mixed ages. The samples were assessed for mortality 6 days after infestation.

[5] = system: Diabrotica balteata (Corn root worm); test: Diabrotica balteata (Corn root worm), maize sprouts sprayed, L2 larvae mortality; conditions: 96 h, application rate of 200 ppm, L2 larvae on maize sprouts, assessed 4 days after infestation, read-out: control (mortality)
Description: Diabrotica balteata (Corn root worm):
Maize sprouts placed onto an agar layer in 24-well microtiter plates were treated with aqueous test solutions prepared from 10,000 ppm DMSO stock solutions by spraying. After drying, the plates were infested with L2 larvae (6 to 10 per well). The samples were assessed for mortality 4 days after infestation.

[6] = system: Plutella xylostella (Diamond back moth); test: Plutella xylostella (Diamond back moth): Feeding/contact activity; conditions: 120 h, application rate of 200 ppm, L2 larvae on artificial diet, assessed 5 days after infestation, read-out: control (mortality)
Description: Plutella xylostella (Diamond back moth): Feeding/contact activity
24-well microtiter plates with artificial diet were treated with aqueous test solutions prepared from 10,000 ppm DMSO stock solutions by pipetting. After drying, the plates were infested with L2 larvae (10 to 15 per well). The samples were assessed for mortality 5 days after infestation.

[7] = system: Spodoptera littoralis (Egyptian cotton leaf worm); test: Spodoptera littoralis (Egyptian cotton leaf worm): Feeding/contact activity; conditions: foliar, 72 h, application rate of 200 ppm, L1 larvae on cotton leaf discs, assessed 3 days after infestation, read-out: control (mortality)
Description: Spodoptera littoralis (Egyptian cotton leaf worm): Feeding/contact activity Cotton leaf discs were placed onto agar in 24-well microtiter plates and sprayed with aqueous test solutions prepared from 10,000 ppm DMSO stock solutions. After drying the leaf discs were infested with five L1 larvae. The samples were assessed for mortality 3 days after infestation.

Measured: mortality at 200 ppm

Cn1c(C(F)(C(F)(F)F)C(F)(F)F)cc(Br)c1-n1cc(-c2ccc(Cl)c(C(=O)NC3(C#N)CC3)c2)cn1 [Compound 2, 5-[1-[3-bromo-1-methyl-5-[1,2,2,2-tetrafluoro-1-(trifluoromethyl)ethyl]pyrrol-2-yl]pyrazol-4-yl]-2-chloro-N-(1-cyanocyclopropyl)benzamide]
≥ 80%: all assays above

Cn1c(C(F)(C(F)(F)F)C(F)(F)F)cc(Br)c1-c1cc(-c2ccc(Cl)c(C(=O)NC3(C#N)CC3)c2)on1 [Compound 6, 5-[3-[3-bromo-1-methyl-5-[1,2,2,2-tetrafluoro-1-(trifluoromethyl)ethyl]pyrrol-2-yl]isoxazol-5-yl]-2-chloro-N-(1-cyanocyclopropyl)benzamide]
not listed: [1]
≥ 80%: all other assays above

Cn1c(C(F)(C(F)(F)F)C(F)(F)F)cc(C(F)(F)F)c1-n1cc(-c2ccc(Cl)c(C(=O)NC3(C#N)CC3)c2)cn1 [Compound 8, 2-chloro-N-(1-cyanocyclopropyl)-5-[1-[1-methyl-5-[1,2,2,2-tetrafluoro-1-(trifluoromethyl)ethyl]-3-(trifluoromethyl)pyrrol-2-yl]pyrazol-4-yl]benzamide]
not listed: [2] | [4]
≥ 80%: all other assays above

Cn1c(C(F)(C(F)(F)F)C(F)(F)F)cc(Cl)c1-n1cc(-c2ccc(Cl)c(C(=O)NC3(C#N)CC3)c2)cn1 [Compound 9, 2-chloro-5-[1-[3-chloro-1-methyl-5-[1,2,2,2-tetrafluoro-1-(trifluoromethyl)ethyl]pyrrol-2-yl]pyrazol-4-yl]-N-(1-cyanocyclopropyl)benzamide]
≥ 80%: all assays above

Cn1c(C(F)(C(F)(F)F)C(F)(F)F)cc(C#N)c1-n1cc(-c2ccc(Cl)c(C(=O)NC3(C#N)CC3)c2)cn1 [Compound 10, 2-chloro-N-(1-cyanocyclopropyl)-5-[1-[3-cyano-1-methyl-5-[1,2,2,2-tetrafluoro-1-(trifluoromethyl)ethyl]pyrrol-2-yl]pyrazol-4-yl]benzamide]
≥ 80%: all assays above

Cc1cc(C(F)(C(F)(F)F)C(F)(F)F)n(C)c1-n1cc(-c2ccc(Cl)c(C(=O)NC3(C#N)CC3)c2)cn1 [Compound 11, 2-chloro-N-(1-cyanocyclopropyl)-5-[1-[1,3-dimethyl-5-[1,2,2,2-tetrafluoro-1-(trifluoromethyl)ethyl]pyrrol-2-yl]pyrazol-4-yl]benzamide]
not listed: [4]
≥ 80%: all other assays above

COCn1c(C(F)(C(F)(F)F)C(F)(F)F)cc(Br)c1-n1cc(-c2ccc(Cl)c(C(=O)NC3(C#N)CC3)c2)cn1 [Compound 14, 5-[1-[3-bromo-1-(methoxymethyl)-5-[1,2,2,2-tetrafluoro-1-(trifluoromethyl)ethyl]pyrrol-2-yl]pyrazol-4-yl]-2-chloro-N-(1-cyanocyclopropyl)benzamide]
not listed: [1]
≥ 80%: all other assays above

Cn1c(SC(F)(F)F)c(Br)c(Br)c1-n1cc(-c2ccc(Cl)c(C(=O)NC3(C#N)CC3)c2)cn1 [Compound 16, 2-chloro-N-(1-cyanocyclopropyl)-5-[1-[3,4-dibromo-1-methyl-5-(trifluoromethylsulfanyl)pyrrol-2-yl]pyrazol-4-yl]benzamide]
not listed: [3] | [4]
≥ 80%: all other assays above

Cn1c(C(F)(c2cc(F)cc(F)c2)C(F)(F)F)cc(Br)c1-n1cc(-c2ccc(Cl)c(C(=O)NC3(C#N)CC3)c2)cn1 (centres unmarked) [Compound 17, 5-[1-[3-bromo-5-[1-(3,5-difluorophenyl)-1,2,2,2-tetrafluoro-ethyl]-1-methyl-pyrrol-2-yl]pyrazol-4-yl]-2-chloro-N-(1-cyanocyclopropyl)benzamide]
not listed: [3] | [4]
≥ 80%: all other assays above

CCN(C(=O)c1cc(-c2cnn(-c3c(Br)cc(C(F)(C(F)(F)F)C(F)(F)F)n3C)c2)ccc1Cl)C1CC1 [Compound 22, 5-[1-[3-bromo-1-methyl-5-[1,2,2,2-tetrafluoro-1-(trifluoromethyl)ethyl]pyrrol-2-yl]pyrazol-4-yl]-2-chloro-N-cyclopropyl-N-ethyl-benzamide]
not listed: [1]
≥ 80%: all other assays above

Cn1c(C(F)(C(F)(F)F)C(F)(F)F)cc(C(N)=S)c1-n1cc(-c2ccc(Cl)c(C(=O)NC3(C#N)CC3)c2)cn1 [Compound 23, 5-[1-[3-carbamothioyl-1-methyl-5-[1,2,2,2-tetrafluoro-1-(trifluoromethyl)ethyl]pyrrol-2-yl]pyrazol-4-yl]-2-chloro-N-(1-cyanocyclopropyl)benzamide]
not listed: [1]
≥ 80%: all other assays above

Cn1c(C(F)(c2cc(Cl)cc(Cl)c2)C(F)(F)F)cc(Cl)c1-n1cc(-c2ccc(Cl)c(C(=O)NC3(C#N)CC3)c2)cn1 (centres unmarked) [Compound 30, 2-chloro-5-[1-[3-chloro-5-[1-(3,5-dichlorophenyl)-1,2,2,2-tetrafluoro-ethyl]-1-methyl-pyrrol-2-yl]pyrazol-4-yl]-N-(1-cyanocyclopropyl)benzamide]
not listed: [2] | [4]
≥ 80%: all other assays above

Cn1c(C(F)(F)C(F)(F)F)cc(Cl)c1-n1cc(-c2ccc(Cl)c(C(=O)NC3(C#N)CC3)c2)cn1 [Compound 33]
not listed: [1]
≥ 80%: all other assays above

Cn1c(C(F)(C(F)(F)F)C(F)(F)F)cc(I)c1-n1cc(-c2ccc(Cl)c(C(=O)NC3(C#N)CC3)c2)cn1 [Compound 34, 2-chloro-N-(1-cyanocyclopropyl)-5-[1-[3-iodo-1-methyl-5-[1,2,2,2-tetrafluoro-1-(trifluoromethyl)ethyl]pyrrol-2-yl]pyrazol-4-yl]benzamide]
not listed: [4]
≥ 80%: all other assays above
